Experiment [1] relates to Acinetobacter baumannii ATCC BAA-1797 (MDR). Nature of the experiment: Broth microdilution MIC (Table 2). The experiment is classed as cell-based. Particulars: ATCCBAA1797, read-out: MIC. The procedure:
(§1) Each peptide was formulated in PBS buffer prior to testing. Peptides of SEQ ID NO:5 and SEQ ID NO:8 were brought up in 100% DMSO with 0.002% polysorbate-80 at 1.28 mg/mL (40× the highest final test concentration of 32 mcg/mL). Final test concentration of DMSO was 2.5% in the assay at the first dilution for those two compounds.
(§2) Mueller Hinton II broth (MHB II; BD; Lot Nos. 6258541 and 7143896) was used for MIC testing of aerobic organisms. 0.002% polysorbate 80 (P80) was added to the test medium.
(§3) MIC values were determined using a broth microdilution procedure described by CLSI (1, 3). Automated liquid handlers (Multidrop 384, Labsystems, Helsinki, Finland; Biomek 2000 and Biomek FX, Beckman Coulter, Fullerton Calif.) were used to conduct serial dilutions and liquid transfers.
(§4) To prepare the drug mother plates, which would provide the serial peptide dilutions for the replicate daughter plates, the wells of columns 2-12 of standard 96-well microdilution plates (Costar 3795) were filled with 150 μl of the designated diluent for each row of peptide. The test articles and comparator compounds (300 μl at 40× the highest concentration to be tested) were dispensed into the appropriate wells in column 1. The Biomek 2000 was then used to make 2-fold serial dilutions in the mother plates from column 1 through column 11. The wells of Column 12 contained no drug and served as the organism growth control wells for the assay.
(§5) The daughter plates were loaded with 185 μL per well of MHB II using the Multidrop 384. The daughter plates were completed on the Biomek FX instrument which transferred 5 uL of peptide solution from each well of a mother plate to the corresponding well of each daughter plate in a single step. A standardized inoculum of each test organism was prepared per CLSI methods. The inoculum for each organism was dispensed into sterile reservoirs divided by length (Beckman Coulter), and the Biomek 2000 was used to inoculate the plates. Daughter plates were placed on the Biomek 2000 work surface in reverse orientation so that inoculation took place from low to high drug concentration. The plates were then inoculated with 10 μL of the inoculum resulting in a final cell density of approximately 5×10^5 CFU/mL, per well.
(§6) Plates were stacked 3-4 high, covered with a lid on the top plate, placed in plastic bags, and incubated at 35° C. for 16 to 20 hrs. Following incubation, the microplates were removed from the incubator and viewed from the bottom using a plate viewer. […] The MIC was read and recorded as the lowest concentration of peptide that inhibited visible growth of the organism.
A general note: Broth dilution looks for growth in wells or tubes with falling amounts of substance.

The test system of experiment [2] is Enterococcus faecalis ATCC 29212 (VSE; QC). The experiment can be described thus: Broth microdilution MIC (Table 2). The experiment is classed as cell-based. Particulars: ATCC29212, read-out: MIC. As to the method:
as §1, §2, §3, §4, §5, §6

In experiment [3] the test system is Escherichia coli ATCC BAA-2471 (NDM-1). The experiment can be described thus: Broth microdilution MIC (Table 2). As to conditions: ATCCBAA2471. Format: cell-based. The procedure: as §1, §2, §3, §4, §5, §6
Experiment [4] concerns Pseudomonas aeruginosa ATCC 27853 (non-MDR; QC). The experiment can be described thus: Broth microdilution MIC (Table 2). As to conditions: ATCC27853, read-out: MIC. The experiment is classed as cell-based. As to the method: as §1, §2, §3, §4, §5, §6
The subject of experiment [5] is Pseudomonas aeruginosa ATCC BAA-2109 (MDR). The experiment can be described thus: Broth microdilution MIC (Table 2). Format: cell-based. Particulars: ATCCBAA2109. As to the method: as §1, §2, §3, §4, §5, §6
Experiment [6] deals with Staphylococcus aureus ATCC 43300 (MRSA). Nature of the experiment: Broth microdilution MIC (Table 2). As to conditions: read-out: MIC. Format: cell-based. The procedure:
as §1, §2, §3, §4, §5, §6

Experiment [7] has as its system Staphylococcus aureus NRS382 (USA100; HA-MRSA). The experiment can be described thus: Broth microdilution MIC (Table 2). The experiment is classed as cell-based. As to conditions: read-out: MIC. The procedure:
as §1, §2, §3, §4, §5, §6

Experiment [8] relates to Streptococcus pneumoniae ATCC 49619 (QC). Nature of the experiment: Broth microdilution MIC (Table 2). Particulars: ATCC49619, read-out: MIC. Format: cell-based. The procedure:
as §1, §2, §3, §4, §5, §6

For experiment [9], the system named is Streptococcus pyogenes ATCC 49399. The experiment can be described thus: Broth microdilution MIC (Table 2). As to conditions: ATCC49399, read-out: MIC. Format: cell-based. As to the method:
as §1, §2, §3, §4, §5, §6

Experiment [10] relates to Enterobacter spp. isolates (n = 102). The experiment can be described thus: Broth microdilution MIC, clinical isolate panel. Format: cell-based, Enterobacter aerogenes and E. cloacae. As to conditions: Enterobacter spp. (n = 102). As to the method: Comparator antibiotics were supplied by Micromyx, and stock solutions were prepared on the first day of testing using solvents recommended by CLSI (1). Stock solutions of all compounds were made at 40× the final testing concentration and stored at −80° C. prior to testing. Information regarding compound source, catalog and lot number, testing concentrations and drug diluent for the comparators and test agent are detailed below in Table 3.
The test organisms evaluated in this study consisted of clinical isolates from the Micromyx Repository and reference isolates from the American Type Culture Collection (ATCC; Manassas, Va.). The clinical isolates were obtained from USA hospitals. Upon initial receipt at Micromyx, the organisms were sub-cultured onto an appropriate agar medium. Following incubation, colonies were harvested from these plates and cell suspensions prepared and frozen at −80° C. with a cryoprotectant. Prior to testing, the isolates were streaked from frozen vials onto Trypticase Soy Agar with 5% sheep blood (Becton Dickenson [BD]; Sparks, Md.; Lot Nos. 7173618, 7166759, 7208688, 72144895, 7228505 and Remel Lenexa, Kans. Lot No. 212574). Plates were incubated at 35° C. overnight.
Mueller Hinton II broth (MHB II; BD; Lot Nos. 6258541 and 7143896) was used for MIC testing of aerobic organisms.
as §3
as §4, with “drug” for “peptide”, “drug.” for “peptide.”
The daughter plates were loaded with 185 μL per well of MHB II using the Multidrop 384. The daughter plates were completed on the Biomek FX instrument which transferred 5 µL of drug solution from each well of a mother plate to the corresponding well of each daughter plate in a single step. […]
Plates were stacked 3-4 high, covered with a lid on the top plate, placed in plastic bags, and incubated at 35° C. for 16 to 20 hrs. […] The MIC was read and recorded as the lowest concentration of drug that inhibited visible growth of the organism. […]

In brackets after ≈: the same amount, converted by molar mass.

What is called MIC is the smallest concentration in the dilution series that meets the test's criterion for growth inhibition. With `C[C@H]1COc2c(N3CCN(C)CC3)c(F)cc3c(=O)c(C(=O)O)cn1c23` [Levofloxacin], the MIC in experiment [1] is 0.25 µg/mL (≈ 0.692 µM); in experiment [2], 1 µg/mL (≈ 2.77 µM); in experiment [3], 64 µg/mL (≈ 177 µM); in experiment [4] it was 1 µg/mL (≈ 2.77 µM); in experiment [5], 1 µg/mL (≈ 2.77 µM); in [6] it was 0.25 µg/mL (≈ 0.692 µM). Also, the figures for the MIC in experiment [7], in [8] and in [9] were 8 µg/mL (≈ 22.1 µM), 1 µg/mL (≈ 2.77 µM) and 0.5 µg/mL (≈ 1.38 µM), respectively. Also, the “% R (percent of isolates resistant, clinical breakpoints)” value in experiment [10] was 4.9%.

The record behind these values is US20200071361A1, “ENGINEERED ANTIMICROBIAL AMPHIPHILIC PEPTIDES AND METHODS OF USE” (priority 2017, published 2020).
